This note sets out measurements from patent US20040091517A1, “Use of polyphospate as a tooth erosion inhibitors in acidic compositions” (priority 2000, published 2004).

Several values for one entry are separate records, joined by “and”; a condition that tells them apart may be missing. Equal values may be shown once.

This assay in a line: in-vitro planometry/profilometry test of enamel erosion by acidic solutions and beverages. On the set-up: species or system human. As to the method:
Test solutions were prepared by dissolving the ingredients in water as described in the Table. For test solutions containing sodium polyphosphate, the average chain length (n) of the polyphosphate polymer used was 17. All solutions were prepared to give a pH of 3.0 and a titratable acidity of 0.5% w/v CAMH (citric acid monohydrate). Where calcium was added, the molar ratio of calcium: citric acid used was about 0.08. The erosive effect of the solutions was evaluated using in-vitro planometry tests in which flat dental enamel sections were exposed to test solutions at a temperature of 37° C. for 4 hours. […] Erosive effect was evaluated by physical measurement of the depth of enamel (in microns) lost during the procedure.
A. Solutions were prepared containing approximately equivalent molar concentrations of phosphate groups dissolved in 0.3% w/v citric acid monohydrate (CAMH), pH 3.4. pH was adjusted by the addition of NaOH as required. […] Additionally sodium polyphosphate n≈4, 7, 28 was from Chemische Fabrik Budenheim, Budenheim, Germany, and sodium polyphosphate n≈12, 21, 25 was from Rhodia Ltd. Widnes, Cheshire, UK. Enamel specimens were placed in the solutions with stirring at 37 C for 4 hours and the amount of enamel lost from the surface during that time measured by profilometry as described previously.
The acidulant employed was 0.3% w/v citric acid monohydrate. Citric acid is one of the most commonly employed food acidulants. Adjustment of pH where required was achieved by the addition of NaOH.

With `O=C([O-])[O-].[Ca+2]` [Ca, calcium carbonate], the “4 Hr Enamel Loss” value by setting is: (Ca 80 ppm alone, no phosphate salt, no gum, 0.5% w/v CAMH, pH 3.0) 41.1 microns and 80 microns; (Ca 80 ppm alone, no phosphate salt, 0.3% w/v CAMH, pH 3.4) 42.8 microns; (Ca 100 ppm alone, no polyphosphate, 0.3% w/v CAMH, pH 3.2) 31.5 microns; (Ca 200 ppm alone, no polyphosphate, 0.3% w/v CAMH, pH 3.2) 25.2 microns.
With `O=P([O-])([O-])OP(=O)([O-])OP(=O)([O-])[O-].[Na+].[Na+].[Na+].[Na+].[Na+]` [Penta-sodium triphosphate], the “4 Hr Enamel Loss” value is, setting by setting: (phosphate salt 0.61 g/L, Ca 80 ppm, 0.5% w/v CAMH, pH 3.0, listed as Penta sodium triphosphate, triphosphate) 20.09 microns; (phosphate salt 0.61 g/L, Ca 80 ppm, 0.5% w/v CAMH, pH 3.0, listed as sodium tri-phosphate, triphosphate) “about 20 microns”; (phosphate salt 0.61 g/L, Ca 80 ppm, 0.5% w/v CAMH, pH 3.0, triphosphate) 20.1 microns; (phosphate salt 0.61 g/L, no Ca, 0.3% w/v CAMH, pH 3.4) 29.6 microns.
On to `O=P(O)(O)O` [Sodium phosphate], for which the “4 Hr Enamel Loss” value was 33.4 microns and 33.39 microns (phosphate salt 0.65 g/L, Ca 80 ppm, 0.5% w/v CAMH, pH 3.0); “about 33 microns” (phosphate salt 0.65 g/L, Ca 80 ppm, 0.5% w/v CAMH, pH 3.0, listed as sodium phosphate); 34.05 microns (phosphate salt 0.65 g/L, no Ca, 0.3% w/v CAMH, pH 3.4).
For the compound `O=P([O-])([O-])OP(=O)([O-])[O-].[Na+].[Na+].[Na+].[Na+]` [Tetra-sodium pyrophosphate], the “4 Hr Enamel Loss” value is 28.6 microns (phosphate salt 1.08 g/L, Ca 80 ppm, 0.5% w/v CAMH, pH 3.0); 28.63 microns (phosphate salt 1.08 g/L, Ca 80 ppm, 0.5% w/v CAMH, pH 3.0, listed as Tetra sodium pyrophosphate); “about 29 microns” (phosphate salt 1.08 g/L, Ca 80 ppm, 0.5% w/v CAMH, pH 3.0, listed as sodium pyrophosphate); 34.9 microns (phosphate salt 1.08 g/L, no Ca, 0.3% w/v CAMH, pH 3.4).
